Test results taken from patent publication US20230000943A1, “METHOD OF INDUCING SYNAPTOGENESIS BY ADMINISTERING ANGIOTENSIN AND ANALOGUES THEREOF” (Synaptogenix, Inc., priority 2021, published 2023).
Where two headings read alike, the source gives them in different places. Blank lines part the entries; values can stand above or below the molecule they belong to.

Legend:
[1] = target: PKC; details: cited from earlier work
[2] = target: PKC; details: competes with [3H] phorbol dibutyrate; read-out: Ki for binding to PKC; cited from earlier work
[3] = system: squamous cell carcinoma and melanoma; details: used topically; cited from earlier work
[4] = system: NCI 60 cell line; details: NCI 60 cell line screen; cited from earlier work
[5] = target: protein kinase C; details: specifically the (−)-enantiomer; read-out: potency (EC50); cited from earlier work
[6] = system: BDNF; assay: Mouse dosing study: brain BDNF levels; assay type: in vivo; details: mice
Text: (§1) Mouse studies may be performed using an angiotensin, as described above, in accordance with the protocol described below. The following metrics may be used to evaluate dosing regimens: induction of brain postsynaptic anchoring protein PSD-95, upregulation of BDNF levels in brain, upregulation of HGF levels in brain, minimal downregulation of PKC-ε levels, and elevation of brain and plasma concentrations of the angiotensin. Groups of 2-3 mice may be formed and housed in an approved research animal facility. Water may be given ad libitum. A first study involves three groups of mice with animals in each group dosed weekly for 1, 2, 3, or 6 consecutive weeks. Each group has its own control group containing the same number of mice. For example, mice in the first, second and third groups may receive an intravenous (i.v.) injection of 10 μg/m^2, 15 μg/m^2, and 25 μg/m^2 dose of an angiotensin. For each dose, mice in that group may receive a single injection of the angiotensin weekly for a predetermined number of consecutive weeks. Following dosing, mice are sacrificed, and the blood and brain of each animal is collected for further analysis.

[7] = system: PSD-95; assay: Mouse dosing study: PSD-95 levels; assay type: in vivo, mice; details: 25 μg/m^2 i.v. once per week, after three weeks
Text: as §1

[8] = design: species or system mice; details: mouse, in vivo, iv
Text: as §1

[9] = A-ring bryologs, read-out: affinity for PKC

Molecule: CCCCCCCC(=O)O[C@H]1/C(=C/C(=O)OC)CC2C[C@H](CO)OC(=O)C[C@H](O)C[C@@H]3CCC[C@H](C[C@@H]4CCO[C@H](/C=C/C(C)(C)[C@]1(O)O2)O4)O3 [Analog 1]
- Ki ([1]; Table 1 Bryologs, read-out: PKC Affin): 0.25 nM
- affinity for PKC (in words) ([1]; compared with Bryostatin-1 and the other bryologs): highest affinity for PKC

Molecule: CC1=C[C@]23C(=O)[C@@H](C=C(COC(=O)c4ccccc4)[C@@H](O)[C@]2(O)[C@H]1OC(=O)c1ccccc1)[C@H]1[C@@H](C[C@H]3C)C1(C)C [Ingenol 3,20-dibenzoate]
- Ki [2]: 240 nM

Molecule: C/C=C(/C)C(=O)O[C@H]1C(C)=C[C@]23C(=O)[C@@H](C=C(CO)[C@@H](O)[C@]12O)[C@H]1[C@@H](C[C@H]3C)C1(C)C [Ingenol-3-angelate]
- antitumor activity [3]: exhibits antitumor activity

Molecule: CC1=CC[C@H](C)C(C)(C)[C@@H]1/C=C/C(C)=C/CC[C@@]1(CO)[C@H](CCCO)/C(=C(/C)C=O)CC[C@]1(C)O [Iripallidal]
- GI50 (concentration required to inhibit growth by 50%) [4]: micromolar to nanomolar range

Molecule: CCCCCCCC(=O)OC1C(=CC(=O)OC)CC2CC(CO)OC(=O)CC(O)CCOC(C(C)(C)C)CC3CCOC(C=CC(C)(C)C1(O)O2)O3 (stereo not shown) [bryolog 3]
- Ki [1, 9]: 6.5 nM

Molecule: CCCCCCCC(=O)OC1C(=CC(=O)OC)CC2CC(CO)OC(=O)CC(O)CCOC(c3ccccc3)CC3CCOC(C=CC(C)(C)C1(O)O2)O3 (stereo not shown) [bryolog 4]
- Ki [1, 9]: 2.3 nM

Molecule: CCCCCCCC(=O)OC1C(=CC(=O)OC)CC2CC(CO)OC(=O)CC(O)CCOC(CCCc3ccc(Br)cc3)CC3CCOC(C=CC(C)(C)C1(O)O2)O3 (stereo not shown) [bryolog 5]
- Ki [1, 9]: 1.9 nM

Molecule: CCCCCCCCc1ccc2c3c(c[nH]c13)C[C@@H](CO)NC(=O)[C@H](C(C)C)N2C [octylindolactam V, Octylindolactam V]
- EC50 [5]: 29 nM

- concentration in brain relative to plasma [8]: less than its concentration in plasma
- crossing of the blood-brain-barrier [8]: crosses the BBB
Molecule: angiotensin
- brain BDNF levels ([6]; 15 μg/m^2 for three consecutive weeks): some increase
- brain BDNF levels ([6]; 25 μg/m^2): maximum increase
- brain BDNF levels ([6]; 25 μg/m^2, 3 on/3 off/3 on regimen): remain elevated
- brain BDNF levels ([6]; after three consecutive weekly doses at 25 μg/m^2): highest level
- PSD-95 in brain and blood samples [7]: higher amounts of PSD-95
